Test results as given in US11464751B2, “Use of fluoroethylnormemantine for the prevention and treatment of anxiety” (REST THERAPEUTICS, priority 2017, dated 2022).

Legend:
naive rats (Wistar) [1] = experiment: Open-field test (locomotor activity and anxiety); format: in vivo, rat; conditions: for drowsiness effect / overall activity level of the animals: open field over 2 hours, FENM even at high doses, memantine 10 mg/kg
Method: Thus, to test state anxiety, several animal models are commonly used and have been validated by numerous studies: • open field test: This consists of forcibly exposing the animal (rat or mouse) to a new environment and observing its behavior. […] Locomotor activity and behavior are then assessed by recording the number of crossings of the grid lines, the frequency of retreats, the number of entries and the time spent in the central squares. This animal model is considered a good model of “normal” anxiety when adapting to a new environment. It has good predictability of human response to treatment (L. Prut, European Journal of Pharmacology 463 (2003) 3-33). The open-field test is also useful, when it is prolonged (behavioral recording time over 2 hours), as it allows monitoring the motor activity of the animals and thus their state of wakefulness, whereas measurements at short times give information on anxiety. • the light-dark box test: another animal model of anxiety is based on the aversive properties of an open-field space and on the comparison of exploratory activities in a lit compartment and in a dark compartment under the influence of anxiolytic substances (M Bourin, European Journal of Pharmacology 463 (2003) 55-65). This paradigm is based on rodents' innate aversion to bright places and on rodents' spontaneous exploratory behavior in response to stressful environments (new environment or light). The test device is divided into two compartments, one is small, dark and safe, the second is large, bright and stressful. This paradigm allows the prediction of anxiolytic or anxiogenic drug-like activities in mice. Passages between each compartment are a cue of exploration activity, while the time spent in each compartment reflects aversion. Anxiolytics, effective in humans, classic (benzodiazepines) as well as more recent anxiolytic compounds (serotonergic drugs or drugs acting on neuropeptide receptors) can be detected by this animal model which has the advantage of being simple and quick to use. • The open-field test with light gradient: the two models described above can be judiciously coupled in order to check the anxiolytic potential of a molecule, by eliminating the “burrow” effect induced by the presence of the dark compartment.
(§1) In the following examples, the effects of memantine, propranolol and fluoroethylnormemantine (FENM, the subject of the present invention) are studied in naive rats (Wistar) subjected to various tests related to depression or anxiety and then compared.
(§2) The test substances are administered to rats intraperitoneally in a volume of 5 ml/kg, 30 minutes before the behavioral tests are performed.
(§3) The injected solutions contain either of the molecules in the form of one of their salts, a hydrochloride (memantine·HCl and FENM·HCl) for the nitrogen derivatives and as such for propranolol, at the concentrations indicated below in a mixture of 95% (NaCl 0.9% ww in water)/5% ethanol. In each experiment, the dose per kilogram is referenced.
In this way, the animals are given a constant volume of solution (to the nearest difference in weight) equal to 5 ml/kg, or 1.5 ml for a 300 g rat.
For each paradigm, and each solution tested, 12 rats are subjected to injection and behavioral testing. The control solution is a saline solution.
• Open-field test: The locomotor activity of the animals and the “normal” anxiety associated with the discovery of an unknown environment are measured in an open field using a video monitoring system for 2 hours, 30 minutes after the injection of the solutions to be tested. The recorded data include, with a reading every 5 minutes, the time spent in the central squares, vertical activity, and the number of displacements.

naive rats (Wistar) [2] = experiment: Fear conditioning + extinction + stabilization (PTSD model); format: in vivo, rat
Text: Several animal models have been developed to mimic the traumatic events that induce intense and recurrent fear symptoms characteristic of PTSD. • Pavlovian fear conditioning of the animals: This animal model consists of Pavlovian-type fear conditioning (Zovkic, Neuropsychopharmacology Reviews (2013) 38, 77-93): mice (or rats) are trained to associate exposure to danger (electric shock, etc.) with the presence of a specific cue or environment (sound cue for example). The memory of this association (danger-cue) is later tested by measuring tetany behavior (through fear) when the animal is re-exposed to the conditioning cue in the absence of real danger.
Again, the occurrence of symptoms of PTSD are assessed after a certain period of time, without exposure to the hazard, to simulate the long-term onset of PTSD pathology. • Fear extinction: After a fear conditioning as described above it can be of interest to apply a protocol to extinguish this fear. Classically, this phase is placed 24 hours after the conditioning phase.
The extinction protocols model the relearning of the normal (non-fear-motivated) response to the cue (sound) and are very useful in modeling PTSD. • Fear stabilization: It can be useful, to assess the performance of a treatment, to add a stabilization phase after the extinction phase, spaced 24 h apart. Typically, this phase puts the animals back under the extinction phase conditions. It then allows the detection of staggered performances of the treatments, but also of the resurgence of tetany (rebound effect).
as §1, §2, §3
The applicant used a fear conditioning test in which the clue (neutral conditional stimulus) is a sound, coupled with a danger (aversive unconditional stimulus) which is an electric shock delivered by the floor of the box. This conditioning is followed by a fear extinction phase with injection of the treatment solutions to be tested and then by a test phase itself. • Fear Conditioning Phase (FC): fear conditioning takes place in a standard conditioning box (context A, white box in Table 7) and the rats (8 per group) are subjected to 3 “sound-electroshock” pairs at times of 180 s, 381 s and 582 s after being placed in the box. Each sound lasts 20 s and each electroshock lasts 1 s with a current of 1 mA. • The fear extinction phase (Ext.) is conducted as follows: the rats are placed in a box similar to the one that will be used for the final test (context B, pink box in Table 7), for a 25-minute session. During this session, 24 presentations are made with the same sound as that used during the conditioning session (20 s each, 35 s apart). Of course, no electric shock is delivered, and the percentage of time of tetany (“freezing”) during the phase is recorded. • Stabilization phase: the day after the extinction phase, 30 minutes before the test phase, […] of 3 sounds (same sequence as used for conditioning), recording the percentage of time they remain still during this test phase. […]

[3] = 10 mg/kg i.p., 30 min before test, 0-5 min

CC12CC3CC(C)(C1)CC(N)(C3)C2 [Memantine, memantine]
Mean time spent in the central squares per time interval (naive rats (Wistar) [1]; [3]): 90.4 s
Vertical activity (naive rats (Wistar) [1]; 10 mg/kg i.p., 0-5 min): 11.33
Mean time spent in the central squares per time interval (naive rats (Wistar) [1]; 10 mg/kg i.p., 0-10 min): 136.8 s
Vertical activity (naive rats (Wistar) [1]; 10 mg/kg i.p., 0-10 min): 16.00
Mean time spent in the central squares per time interval (naive rats (Wistar) [1]; 10 mg/kg i.p., 0-120 min): 1874.8 s
Number of displacements (naive rats (Wistar) [1]; 10 mg/kg i.p., 0-120 min): 750
Vertical activity (naive rats (Wistar) [1]; 10 mg/kg i.p., 0-120 min): 60.08
Mean time spent in the central squares per time interval (naive rats (Wistar) [1]; 10 mg/kg i.p., 5-10 min): 46.3 s
Vertical activity (naive rats (Wistar) [1]; 10 mg/kg i.p., 5-10 min): 4.67
drowsiness effect / overall activity level of the animals (naive rats (Wistar) [1]): decreases the overall activity level
rebound effect (increased tetany) compared with control during the stabilization phase (naive rats (Wistar) [2]; 10 mg/kg administered during the extinction phase): +25%

NC12CC3CC(C1)CC(CCF)(C3)C2
Mean time spent in the central squares per time interval (naive rats (Wistar) [1]; 5 mg/kg i.p., 30 min before test, 0-5 min): 128.8 s
Vertical activity (naive rats (Wistar) [1]; 5 mg/kg i.p., 0-5 min): 40.67
Mean time spent in the central squares per time interval (naive rats (Wistar) [1]; 5 mg/kg i.p., 0-10 min): 216.8 s
Vertical activity (naive rats (Wistar) [1]; 5 mg/kg i.p., 0-10 min): 71.17
Mean time spent in the central squares per time interval (naive rats (Wistar) [1]; 5 mg/kg i.p., 0-120 min): 1563.6 s
Number of displacements (naive rats (Wistar) [1]; 5 mg/kg i.p., 0-120 min): 1600
Vertical activity (naive rats (Wistar) [1]; 5 mg/kg i.p., 0-120 min): 136.00
Mean time spent in the central squares per time interval (naive rats (Wistar) [1]; 5 mg/kg i.p., 5-10 min): 88.0 s
Vertical activity (naive rats (Wistar) [1]; 5 mg/kg i.p., 5-10 min): 30.50
Mean time spent in the central squares per time interval (naive rats (Wistar) [1]; [3]): 116.8 s
Vertical activity (naive rats (Wistar) [1]; 10 mg/kg i.p., 0-5 min): 52.33
Mean time spent in the central squares per time interval (naive rats (Wistar) [1]; 10 mg/kg i.p., 0-10 min): 226.7 s
Vertical activity (naive rats (Wistar) [1]; 10 mg/kg i.p., 0-10 min): 86.42
Mean time spent in the central squares per time interval (naive rats (Wistar) [1]; 10 mg/kg i.p., 0-120 min): 1803.8 s
Number of displacements (naive rats (Wistar) [1]; 10 mg/kg i.p., 0-120 min): 1800
Vertical activity (naive rats (Wistar) [1]; 10 mg/kg i.p., 0-120 min): 173.75
Mean time spent in the central squares per time interval (naive rats (Wistar) [1]; 10 mg/kg i.p., 5-10 min): 109.9 s
Vertical activity (naive rats (Wistar) [1]; 10 mg/kg i.p., 5-10 min): 34.08
Mean time spent in the central squares per time interval (naive rats (Wistar) [1]; 20 mg/kg i.p., 30 min before test, 0-5 min): 129.8 s
Vertical activity (naive rats (Wistar) [1]; 20 mg/kg i.p., 0-5 min): 47.33
Mean time spent in the central squares per time interval (naive rats (Wistar) [1]; 20 mg/kg i.p., 0-10 min): 235.7 s
Vertical activity (naive rats (Wistar) [1]; 20 mg/kg i.p., 0-10 min): 66.58
Mean time spent in the central squares per time interval (naive rats (Wistar) [1]; 20 mg/kg i.p., 0-120 min): 1692.8 s
Number of displacements (naive rats (Wistar) [1]; 20 mg/kg i.p., 0-120 min): 2100
Vertical activity (naive rats (Wistar) [1]; 20 mg/kg i.p., 0-120 min): 208.92
Mean time spent in the central squares per time interval (naive rats (Wistar) [1]; 20 mg/kg i.p., 5-10 min): 105.9 s
Vertical activity (naive rats (Wistar) [1]; 20 mg/kg i.p., 5-10 min): 19.25
drowsiness effect / overall activity level of the animals (naive rats (Wistar) [1]): does not generate the drowsiness effect
Percentage of time of tetany (freezing) during the stabilization phase (naive rats (Wistar) [2]; 5 mg/kg, Early treatment: one injection 30 minutes before the extinction phase): 21%
Percentage of time of tetany (freezing) during the stabilization phase (naive rats (Wistar) [2]; 5 mg/kg, Late treatment: one injection 30 minutes before the stabilization phase): 26%
Percentage of time of tetany (freezing) during the stabilization phase (naive rats (Wistar) [2]; 5 mg/kg, Protective effect: one injection 30 minutes before the conditioning phase): 23%
Percentage of time of tetany (freezing) during the stabilization phase (naive rats (Wistar) [2]; 10 mg/kg, Early treatment: one injection 30 minutes before the extinction phase): 25%
Percentage of time of tetany (freezing) during the stabilization phase (naive rats (Wistar) [2]; 10 mg/kg, Late treatment: one injection 30 minutes before the stabilization phase): 4%
Percentage of time of tetany (freezing) during the stabilization phase (naive rats (Wistar) [2]; 10 mg/kg, Protective effect: one injection 30 minutes before the conditioning phase): 6%
Percentage of time of tetany (freezing) during the stabilization phase (naive rats (Wistar) [2]; 20 mg/kg, Early treatment: one injection 30 minutes before the extinction phase): 6%
Percentage of time of tetany (freezing) during the stabilization phase (naive rats (Wistar) [2]; 20 mg/kg, Late treatment: one injection 30 minutes before the stabilization phase): 2%
Percentage of time of tetany (freezing) during the stabilization phase (naive rats (Wistar) [2]; 20 mg/kg, Protective effect: one injection 30 minutes before the conditioning phase): 2%
tetany in the stabilization phase compared with control (naive rats (Wistar) [2]; administered at conditioning, early or late post-traumatic treatment): virtually eliminate
